Format in all cases: cell-based
One data set concerns the target T1, Kir2.1 (Homo sapiens, UniProt P63252).
T1 sequence (P63252 1-427): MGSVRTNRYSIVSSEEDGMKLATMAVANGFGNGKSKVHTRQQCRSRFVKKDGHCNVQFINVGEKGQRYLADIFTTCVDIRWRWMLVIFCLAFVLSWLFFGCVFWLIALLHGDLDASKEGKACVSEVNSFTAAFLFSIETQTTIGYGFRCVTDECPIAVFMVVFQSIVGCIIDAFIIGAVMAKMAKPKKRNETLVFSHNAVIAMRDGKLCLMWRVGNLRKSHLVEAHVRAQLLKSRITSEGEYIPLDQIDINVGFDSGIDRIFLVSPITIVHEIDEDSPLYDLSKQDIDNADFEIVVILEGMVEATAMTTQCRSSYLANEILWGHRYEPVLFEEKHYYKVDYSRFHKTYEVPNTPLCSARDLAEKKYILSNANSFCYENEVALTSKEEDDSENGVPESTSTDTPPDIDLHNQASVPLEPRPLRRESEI
Description: Two-electrode voltage clamp in Xenopus laevis oocytes, Kir2.1. The settings on record: BBP 10 μM, TEVC, n = 5. The procedure: cRNA was prepared from linearized plasmids using the mMESSAGE mMACHINE T7 kit (Ambion, USA) and quantified by UV spectroscopy (NanoDrop, Thermo Scientific, Wilmington, USA). Xenopus laevis oocytes were acquired from EcoCyte Bioscience (Castrop-Rauxel, Germany). Oocytes were injected with 50 nL cRNA and currents were recorded after 2 days of incubation at 19°C. Currents were recorded at a sampling rate of 10 kHz using a TEVC amplifier (Dagan CA-1B; IL, USA), and borosilicate glass recording electrodes (Module Ohm, Herlev, Denmark), made with a DMZ Universal Puller (Zeitz Instruments, Martinsried, Germany) with a resistance of 0.5–1 MΩ when filled with 2 M KCl. Oocytes were superfused with Kulori (pH 7.4) solution containing NaCl 90 mM, KCl 4 mM, MgCl2 1 mM, CaCl2 1 mM, 4-(2-hydroxyethyl)-1-piperazineethanesulfonic acid 5 mM, and currents were elicited with the voltage protocols previously indicated (Skarsfeldt et al., [2016]), from a holding potential of −80 mV. […]
(§1) To assess the effect of BBP on other calcium-activated potassium channels (hBK, hSK3 WT, rSK3 H491N, and hIK), each individual current was first normalized to its cell size using membrane's capacitance (pA/pF) before statistical analysis. […] Statistical significance between saline and the effect of both BBP and the corresponding reference compound was determined for each channel using one-way ANOVA analysis. […]
A general note: Two-electrode voltage clamp is typically applied to oocytes expressing channels or transporters.

The next data set addresses hERG channel (Homo sapiens, UniProt Q12809). The data set can be described thus: Automated patch clamp, stable CHO cell line expressing hERG. Particulars: BBP 10 μM, automated patch clamp, CHO, n = 5. The procedure: (§2) Three different stable HEK293 cell lines expressing hSK1, hSK2 or hSK3 (NeuroSearch A/S, Ballerup, Denmark) and a CHO stable cell line expressing hERG (University of Copenhagen, Copenhagen, Denmark) were used for automated patch clamp. These cells were cultivated and prepared as previously described (Skarsfeldt et al., [2016]).
(§3) Automated patch clamp (QPatch 16, Sophion, Denmark) on SK-expressing HEK293 cell lines was conducted as previously described (Simó-Vicens et al., [2017b]). Briefly, SK currents were elicited by voltage-ramps starting at −80 mV and finishing at +80 mV from a holding potential of 0 mV. Extracellular solution contained 0.1 mM CaCl2, 3 mM MgCl2, 154 mM KCl, 10 mM HEPES and 10 mM glucose with pH 7.4. Intracellular solution for SK experiments contained 8.106 mM CaCl2 (final free calcium concentration of 400 nM), 1.167 mM MgCl2, 10 mM EGTA, 154 mM KCl, 10 mM HEPES, 31.25/ 10 mM KOH/EGTA and 15 mM KOH with pH 7.2. […]
as §1
Background: The patch-clamp technique gives a direct electrical read-out from membranes.

Data set [1] concerns the target hERG channel (against SK channel subtypes hSK1, hSK2, hSK3) (Homo sapiens, UniProt Q12809). The description is as above. The settings on record: human, CHO cells stably expressing hERG. On the procedure:
as §2, §3, §1

“Also recorded” adds a separate entry of the source.

Sequence of hERG channel (Q12809 whole entry): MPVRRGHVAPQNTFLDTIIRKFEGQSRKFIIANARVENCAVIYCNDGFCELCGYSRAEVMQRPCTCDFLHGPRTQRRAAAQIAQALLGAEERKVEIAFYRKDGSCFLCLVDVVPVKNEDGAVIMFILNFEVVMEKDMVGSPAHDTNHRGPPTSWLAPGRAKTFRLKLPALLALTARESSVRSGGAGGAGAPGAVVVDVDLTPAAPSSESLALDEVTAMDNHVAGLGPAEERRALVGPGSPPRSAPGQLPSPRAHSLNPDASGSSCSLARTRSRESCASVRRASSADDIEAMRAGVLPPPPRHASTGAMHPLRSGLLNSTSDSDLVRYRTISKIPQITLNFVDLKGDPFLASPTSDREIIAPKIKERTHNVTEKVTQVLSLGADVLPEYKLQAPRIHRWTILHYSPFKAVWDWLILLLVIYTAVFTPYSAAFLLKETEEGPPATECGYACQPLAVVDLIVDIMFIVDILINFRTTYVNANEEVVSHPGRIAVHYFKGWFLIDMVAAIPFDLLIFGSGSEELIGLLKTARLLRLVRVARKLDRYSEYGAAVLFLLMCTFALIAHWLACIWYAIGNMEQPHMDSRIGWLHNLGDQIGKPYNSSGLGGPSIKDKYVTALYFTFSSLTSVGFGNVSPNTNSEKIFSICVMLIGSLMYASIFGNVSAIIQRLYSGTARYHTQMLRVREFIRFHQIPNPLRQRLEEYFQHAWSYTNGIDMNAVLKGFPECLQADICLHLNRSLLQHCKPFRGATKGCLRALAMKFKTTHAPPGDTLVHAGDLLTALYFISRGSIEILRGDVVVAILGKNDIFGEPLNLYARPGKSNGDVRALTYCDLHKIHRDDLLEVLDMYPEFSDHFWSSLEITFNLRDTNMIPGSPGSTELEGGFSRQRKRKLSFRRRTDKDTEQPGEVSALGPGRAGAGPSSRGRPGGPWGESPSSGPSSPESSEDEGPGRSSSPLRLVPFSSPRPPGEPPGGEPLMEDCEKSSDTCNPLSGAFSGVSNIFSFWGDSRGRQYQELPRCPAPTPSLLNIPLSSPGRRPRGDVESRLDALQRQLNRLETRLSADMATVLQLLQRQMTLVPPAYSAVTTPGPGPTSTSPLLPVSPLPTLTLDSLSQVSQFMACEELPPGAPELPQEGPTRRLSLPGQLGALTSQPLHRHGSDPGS
Sequence of hERG channel (against SK channel subtypes hSK1, hSK2, hSK3) (Q12809 whole entry): as above

Take `c1cc(-c2nc3ccccc3[nH]2)nc(-c2nc3ccccc3[nH]2)c1` [BBP, 2,6-Bis(2-benzimidazolyl)pyridine]: at Kir2.1, the “Effect on Kir2.1 current” value is listed as “did not have any effect; also recorded: did not significantly affect”. Also, the “Reduction of hERG current” value on hERG channel is 19 ± 3%. In data set [1], the selectivity ratio was determined as 46.
